From patent US20160090556A1, “PRODUCTS COMPRISING MALODOR REDUCTION MATERIALS” (The Procter & Gamble Company, priority 2014, published 2016)
Where two headings read alike, the source gives them in different places.

Assay: Liquid dish neat product liquid-air partition coefficient
Format: physicochemical
Conditions: for Comment Code: Log of liquid dish neat product liquid-air partition coefficient: code letters K, L
[1] = class code letter within Comment Code

| Compound | Comment Code: Log of liquid dish neat product liquid-air partition coefficient | Log of liquid dish neat product liquid-air partition coefficient (Comment Code K/L) [1] | Log of liquid dish neat product liquid-air partition coefficient (Comment Code K/L) |
| --- | --- | --- | --- |
| CCCCCCOC(=O)c1ccco1 [Material 275] | K (Log of liquid dish neat product liquid-air partition coefficient greater than or equal to −7) |  |  |
| CC(C=O)Cc1ccc(C(C)(C)C)cc1 (stereo not shown) [Material 162] |  | K (Log of liquid dish neat product liquid-air partition coefficient greater than or equal to −7) |  |
| CC(C)C(=O)OC1CC2CC1C1C=CCC21 (stereo not shown) [Material 487] | K (Log of liquid dish neat product liquid-air partition coefficient greater than or equal to −7) | K (Log of liquid dish neat product liquid-air partition coefficient greater than or equal to −7) |  |
| CC(=O)C(C)=CC1C(C)=CCCC1(C)C (stereo not shown) [Material 703] | K (Log of liquid dish neat product liquid-air partition coefficient greater than or equal to −7) |  |  |
| CC1C(C)(C)C2CCC3CC(C)(C)OC3C2C1(C)C (stereo not shown) [Material 679] | K (Log of liquid dish neat product liquid-air partition coefficient greater than or equal to −7) |  | K (Log of liquid dish neat product liquid-air partition coefficient greater than or equal to −7) |
| C=C(C)C1CCC(C)(O)CC1 (stereo not shown) [Material 612] |  |  | K (Log of liquid dish neat product liquid-air partition coefficient greater than or equal to −7) |
| CC1=CC2(C=CC(C)O2)C(C(C)C)CC1 (stereo not shown) [Material 68] |  | K (Log of liquid dish neat product liquid-air partition coefficient greater than or equal to −7) |  |
| CC(C)Cc1ccc(CC(C)C=O)cc1 (stereo not shown) [Material 1033] |  |  | K (Log of liquid dish neat product liquid-air partition coefficient greater than or equal to −7) |
| CCCCCCC#CC(OC)OC [Material 3] |  | K (Log of liquid dish neat product liquid-air partition coefficient greater than or equal to −7) |  |
| O=C1CCC=CCCCCCCCCCC1 [Material 372] |  | K (Log of liquid dish neat product liquid-air partition coefficient greater than or equal to −7) |  |
| CC1=CC2CC(C3OCCO3)C1CC2C(C)C (stereo not shown) [Material 912] |  |  | K (Log of liquid dish neat product liquid-air partition coefficient greater than or equal to −7) |
| C=CC1(C)Cc2occ(C)c2CC1C(=C)C (stereo not shown) [Material 488] | K (Log of liquid dish neat product liquid-air partition coefficient greater than or equal to −7) | K (Log of liquid dish neat product liquid-air partition coefficient greater than or equal to −7) |  |
| CC(C)=CCC=C(C)C1CC=C(C)CC1 (stereo not shown) [Material 719] |  |  | K (Log of liquid dish neat product liquid-air partition coefficient greater than or equal to −7) |
| CC1=CCC(C23CCCC(C)(C2)OC3)C1(C)C (stereo not shown) [Material 570] | K (Log of liquid dish neat product liquid-air partition coefficient greater than or equal to −7) |  | K (Log of liquid dish neat product liquid-air partition coefficient greater than or equal to −7) |
| CC(=CCC1CC=C(C)C1(C)C)CO (stereo not shown) [Material 1025] |  |  | K (Log of liquid dish neat product liquid-air partition coefficient greater than or equal to −7) |
| CC/C=C\CCC1=CCCC1=O [Material 146] |  | K (Log of liquid dish neat product liquid-air partition coefficient greater than or equal to −7) |  |
| C=CCOCCc1ccccc1 [Material 744] | K (Log of liquid dish neat product liquid-air partition coefficient greater than or equal to −7) |  |  |
| C=CCCCCCCCCCO [Material 870] |  |  | K (Log of liquid dish neat product liquid-air partition coefficient greater than or equal to −7) |
